{"source": "patent US11950596B2", "about": "“Methods of protecting seeds from oxidants and microorganisms” (The United States of America, as represented by the …, priority 2020, dated 2024)", "key": {"P. griseofulvum 2159": {"tested_on": "P. griseofulvum 2159", "experiment": "Heat-sensitizing bioassay of OG (MFC) in other fungi", "format": "cell-based, Penicillium griseofulvum", "conditions": "90 seconds", "procedure": "(§1) As described in A. flavus 3357 test (see above), microfuge tubes were treated with mild heat (57.5° C.) or maintained at RT (22.0° C.) (90 seconds). After heat treatments, entire volume (200 μL) from each microfuge tube was spread onto fresh recovery LB agar (for bacteria) or PDA (for fungi), and plates were incubated at the optimum temperature for respective microorganisms (i.e., 35° C. for Aspergillus, 37° C. for E. coli, 28° C. for Penicillium/A. tumefaciens, respectively). The growth/survival of test microorganisms were monitored after 48 to 72 hrs of incubation.\n(§2) Heat-sensitizing activity of OG against other fungi: Heat-sensitizing activity of OG was then investigated in other fungi (five Aspergillus strains and seven Penicillium strains) including fungicide resistant strains (i.e., P. expansum FR2, FR3 resistant to the conventional fungicide fludioxonil) (see Table 1)."}, "[1]": {"tested_on": "twelve fungi (Aspergillus and Penicillium)", "experiment": "Heat-sensitizing bioassay of OG, average MFC of twelve fungi", "format": "cell-based", "conditions": "90 seconds; for MFC: read-out: average MFC of OG from twelve fungi", "procedure": "as §1, §2\n(RT) to 57.5° C. (mild heat)."}, "A. flavus 3357": {"tested_on": "A. flavus 3357", "experiment": "Antifungal seed disinfection bioassay (OG plus mild heat), A. flavus infection of cabbage seeds", "format": "in vivo, Aspergillus flavus", "conditions": "for No. of seedlings infected: 12 seeds; for % A. flavus infection: mean over 20/50° C. and 20/30 min", "procedure": "(§3) Antifungal seed disinfection bioassays using OG: Effect of OG plus mild heat hurdle technology on the level of seed sanitation (Brassica rapa Pekinensis; Chinese cabbage hybrid) was evaluated. Twelve cabbage seeds (per treatment), unsterilized, were transferred to each 1.5 mL microcentrifuge tube filled with 1 mL (final volume) distilled water, without or with A. flavus (1×10^5 CFU/mL): (1) No OG, no A. flavus inoculum, 20 or 30 min, 20° C.; (2) No OG, no A. flavus inoculum, 20 or 30 min, 50° C.; (3) No OG, w/A. flavus, 20 or 30 min, 20° C.; (4) No OG, w/A. flavus, 20 or 30 min, 50° C.; (5) OG 2 mM, w/A. flavus, 20 or 30 min, 20° C., (6) OG 2 mM, w/A. flavus, 20 or 30 min, 50° C., (7) OG 3 mM, w/A. flavus, 20 or 30 min, 20° C.; (8) OG 3 mM, w/A. flavus, 20 or 30 min, 50° C.; (9) OG 4 mM, w/A. flavus, 20 or 30 min, 20° C.; and (10) OG 4 mM, w/A. flavus, 20 or 30 min, 50° C. After each treatment, the treated seeds (total 12 seeds per treatment) were transferred to PDA and the plates were incubated in the dark at room temperature (RT; 20° C.) for seed germination. After seed germination, the growth of seedlings and fungal germination on the surfaces of germinated seeds were monitored up to 7 days (RT).\n(§4) Seed disinfection via heat-sensitizing activity of OG: Heat-sensitizing capacity of OG was investigated further with crop seeds (Brassica rapa Pekinensis; Chinese cabbage hybrid) contaminated with A. flavus 3357 on the seed surfaces. OG (0, 2, 3, 4 mM) and mild heat (50° C.; Control: 20° C.) were co-applied for 20 to 30 minutes, and the rates of seed germination were also determined."}, "[2]": {"tested_on": "Brassica rapa Pekinensis seeds", "experiment": "Seed disinfection bioassay, germination of treated cabbage seeds", "format": "in vivo", "conditions": "for No. of seedlings germinated: 12 seeds; for % Seed germination: mean over 20/50° C. and 20/30 min", "procedure": "as §3, §4"}, "A. brasiliensis 16404": {"tested_on": "A. brasiliensis 16404", "experiment": "Heat-sensitizing bioassay of OG (MFC) in other fungi", "format": "cell-based, Aspergillus brasiliensis", "conditions": "90 seconds", "procedure": "as §1, §2"}, "A. flavus 4212": {"tested_on": "A. flavus 4212", "experiment": "Heat-sensitizing bioassay of OG (MFC) in other fungi", "format": "cell-based, Aspergillus flavus", "conditions": "90 seconds", "procedure": "as §1, §2"}, "[3]": {"conditions": "OG as low as 3 mM, mild heat 50° C., 20 min"}}, "note": "Where two headings read alike, the source gives them in different places. Marks after values point to notes of the source that are not given here."}
{"smiles": "CCCCCCCCOC(=O)c1cc(O)c(O)c(O)c1", "note": "[Octyl gallate]", "values": [{"measurement": "MFC", "setting": "P. griseofulvum 2159; Penicillium griseofulvum, 2159, 22.0° C.", "value": "> 300", "unit": "µM"}, {"measurement": "MFC", "setting": "P. griseofulvum 2159; Penicillium griseofulvum, 2159, 57.5° C.", "value": 180, "unit": "µM"}, {"measurement": "MFC", "setting": "[1]; 22.0° C., listed as OG", "value": ">283.3", "unit": "µM"}, {"measurement": "average MFC of OG from twelve fungi", "setting": "[1]; 57.5° C., listed as OG", "value": "175.8 (p < 0.005) μM"}, {"measurement": "MFC", "setting": "[1]; Aspergillus, 22.0° C.", "value": "> 283", "unit": "µM"}, {"measurement": "MFC", "setting": "[1]; Aspergillus, 57.5° C.", "value": 176, "unit": "µM"}, {"measurement": "No. of seedlings infected", "setting": "A. flavus 3357; OG 2 mM, 20° C., 20 min", "value": 12}, {"measurement": "No. of seedlings infected", "setting": "A. flavus 3357; OG 2 mM, 20° C., 30 min", "value": 10}, {"measurement": "No. of seedlings infected", "setting": "A. flavus 3357; OG 2 mM, 50° C., 20 min", "value": 4}, {"measurement": "No. of seedlings infected", "setting": "A. flavus 3357; OG 2 mM, 50° C., 30 min", "value": 1}, {"measurement": "% A. flavus infection", "setting": "A. flavus 3357; OG 2 mM", "value": "57 ± 43", "unit": "%"}, {"measurement": "No. of seedlings infected", "setting": "A. flavus 3357; OG 3 mM, 20° C., 20 min", "value": 10}, {"measurement": "No. of seedlings infected", "setting": "A. flavus 3357; OG 3 mM, 20° C., 30 min", "value": 10}, {"measurement": "No. of seedlings infected", "setting": "A. flavus 3357; OG 3 mM, 50° C., 20 min", "value": "0^d"}, {"measurement": "No. of seedlings infected", "setting": "A. flavus 3357; OG 3 mM, 50° C., 30 min", "value": "0^d"}, {"measurement": "% A. flavus infection", "setting": "A. flavus 3357; OG 3 mM", "value": "42 ± 48", "unit": "%"}, {"measurement": "growth of A. flavus contaminated on crop seeds", "setting": "A. flavus 3357; OG 3 mM, mild heat 50° C., 20 to 30 minutes", "value": "completely inhibited"}, {"measurement": "No. of seedlings infected", "setting": "A. flavus 3357; OG 4 mM, 20° C., 20 min", "value": 12}, {"measurement": "No. of seedlings infected", "setting": "A. flavus 3357; OG 4 mM, 20° C., 30 min", "value": 11}, {"measurement": "No. of seedlings infected", "setting": "A. flavus 3357; OG 4 mM, 50° C., 20 min", "value": "0^d"}, {"measurement": "No. of seedlings infected", "setting": "A. flavus 3357; OG 4 mM, 50° C., 30 min", "value": "0^d"}, {"measurement": "% A. flavus infection", "setting": "A. flavus 3357; OG 4 mM", "value": "48 ± 56", "unit": "%"}, {"measurement": "growth of A. flavus on crop seeds", "setting": "A. flavus 3357; [3]", "value": "completely inhibited"}, {"measurement": "No. of seedlings germinated", "setting": "[2]; OG 2 mM, 20° C., 20 min", "value": 12}, {"measurement": "No. of seedlings germinated", "setting": "[2]; OG 2 mM, 20° C., 30 min", "value": 12}, {"measurement": "No. of seedlings germinated", "setting": "[2]; OG 2 mM, 50° C., 20 min", "value": 12}, {"measurement": "No. of seedlings germinated", "setting": "[2]; OG 2 mM, 50° C., 30 min", "value": 10}, {"measurement": "% Seed germination", "setting": "[2]; OG 2 mM", "value": "96 ± 8", "unit": "%"}, {"measurement": "No. of seedlings germinated", "setting": "[2]; OG 3 mM, 20° C., 20 min", "value": 12}, {"measurement": "No. of seedlings germinated", "setting": "[2]; OG 3 mM, 20° C., 30 min", "value": 12}, {"measurement": "No. of seedlings germinated", "setting": "[2]; OG 3 mM, 50° C., 20 min", "value": 12}, {"measurement": "No. of seedlings germinated", "setting": "[2]; OG 3 mM, 50° C., 30 min", "value": 11}, {"measurement": "% Seed germination", "setting": "[2]; OG 3 mM", "value": "98 ± 4", "unit": "%"}, {"measurement": "No. of seedlings germinated", "setting": "[2]; OG 4 mM, 20° C., 20 min", "value": 12}, {"measurement": "No. of seedlings germinated", "setting": "[2]; OG 4 mM, 20° C., 30 min", "value": 12}, {"measurement": "No. of seedlings germinated", "setting": "[2]; OG 4 mM, 50° C., 20 min", "value": 11}, {"measurement": "No. of seedlings germinated", "setting": "[2]; OG 4 mM, 50° C., 30 min", "value": 11}, {"measurement": "% Seed germination", "setting": "[2]; OG 4 mM", "value": "96 ± 5", "unit": "%"}, {"measurement": "germination rate of the crop seeds compared to the control", "setting": "[2]; [3]", "value": "not affected"}, {"measurement": "MFC", "setting": "A. brasiliensis 16404; Aspergillus brasiliensis, 16404, 22.0° C.", "value": "> 300", "unit": "µM"}, {"measurement": "MFC", "setting": "A. brasiliensis 16404; Aspergillus brasiliensis, 16404, 57.5° C.", "value": 160, "unit": "µM"}, {"measurement": "MFC", "setting": "A. flavus 4212; Aspergillus flavus, 4212, 22.0° C.", "value": "> 300", "unit": "µM"}, {"measurement": "MFC", "setting": "A. flavus 4212; Aspergillus flavus, 4212, 57.5° C.", "value": 180, "unit": "µM"}]}
